**Q.** Which solubility (mole fraction) (in acetonitrile, 278.15 K) does the source give for `CCn1c2ccccc2c2cc(-n3nncc3-c3ccccc3)ccc21` here?
**A.** 0.00173

**Q.** What about the solubility (mole fraction) (in acetonitrile, 283.15 K) of the same compound?
**A.** 0.0022

**Q.** And the solubility (mole fraction) (in acetonitrile, 288.15 K)?
**A.** 0.00272

**Q.** And the solubility (mole fraction) (in acetonitrile, 293.15 K)?
**A.** 0.00336

**Q.** What about the solubility (mole fraction) (in acetonitrile, 298.15 K) of the same compound?
**A.** 0.00412

**Q.** And the solubility (mole fraction) (in acetonitrile, 303.15 K)?
**A.** 0.00505

**Q.** What about the solubility (mole fraction) (in acetonitrile, 308.15 K) of the same compound?
**A.** 0.00609

**Q.** And the solubility (mole fraction) (in acetonitrile, 313.15 K)?
**A.** 0.00733

**Q.** And the solubility (mole fraction) (in acetonitrile, 318.15 K)?
**A.** 0.00897

**Q.** What about the solubility (mole fraction) (in acetonitrile, 323.15 K) of the same compound?
**A.** 0.011

**Q.** What about the solubility (mole fraction) (in ethanol, 278.15 K) of the same compound?
**A.** 0.000446

**Q.** And the solubility (mole fraction) (in ethanol, 283.15 K)?
**A.** 0.000546

**Q.** What about the solubility (mole fraction) (in ethanol, 288.15 K) of the same compound?
**A.** 0.000674

**Q.** What about the solubility (mole fraction) (in ethanol, 293.15 K) of the same compound?
**A.** 0.00084

**Q.** And the solubility (mole fraction) (in ethanol, 298.15 K)?
**A.** 0.00102

**Q.** And the solubility (mole fraction) (in ethanol, 303.15 K)?
**A.** 0.00124

**Q.** What about the solubility (mole fraction) (in ethanol, 308.15 K) of the same compound?
**A.** 0.00151

**Q.** And the solubility (mole fraction) (in ethanol, 313.15 K)?
**A.** 0.00183

**Q.** What about the solubility (mole fraction) (in ethanol, 318.15 K) of the same compound?
**A.** 0.0022

**Q.** What about the solubility (mole fraction) (in ethanol, 323.15 K) of the same compound?
**A.** 0.00262

**Q.** What about the solubility (mole fraction) (in isopropanol, 278.15 K) of the same compound?
**A.** 0.000211

**Q.** And the solubility (mole fraction) (in isopropanol, 283.15 K)?
**A.** 0.000278

**Q.** What about the solubility (mole fraction) (in isopropanol, 288.15 K) of the same compound?
**A.** 0.000371

**Q.** What about the solubility (mole fraction) (in isopropanol, 293.15 K) of the same compound?
**A.** 0.000491

**Q.** And the solubility (mole fraction) (in isopropanol, 298.15 K)?
**A.** 0.000639

**Q.** What about the solubility (mole fraction) (in isopropanol, 303.15 K) of the same compound?
**A.** 0.000825

**Q.** What about the solubility (mole fraction) (in isopropanol, 308.15 K) of the same compound?
**A.** 0.00105

**Q.** What about the solubility (mole fraction) (in isopropanol, 313.15 K) of the same compound?
**A.** 0.00135

**Q.** What about the solubility (mole fraction) (in isopropanol, 318.15 K) of the same compound?
**A.** 0.00174

**Q.** And the solubility (mole fraction) (in isopropanol, 323.15 K)?
**A.** 0.00224

**Q.** And the solubility (mole fraction) (in n-propanol, 278.15 K)?
**A.** 0.000523

**Q.** What about the solubility (mole fraction) (in n-propanol, 283.15 K) of the same compound?
**A.** 0.000671

**Q.** What about the solubility (mole fraction) (in n-propanol, 288.15 K) of the same compound?
**A.** 0.000837

**Q.** And the solubility (mole fraction) (in n-propanol, 293.15 K)?
**A.** 0.00103

**Q.** What about the solubility (mole fraction) (in n-propanol, 298.15 K) of the same compound?
**A.** 0.0013

**Q.** What about the solubility (mole fraction) (in n-propanol, 303.15 K) of the same compound?
**A.** 0.00161

**Q.** What about the solubility (mole fraction) (in n-propanol, 308.15 K) of the same compound?
**A.** 0.002

**Q.** What about the solubility (mole fraction) (in n-propanol, 313.15 K) of the same compound?
**A.** 0.00246

**Q.** What about the solubility (mole fraction) (in n-propanol, 318.15 K) of the same compound?
**A.** 0.00297

**Q.** And the solubility (mole fraction) (in n-propanol, 323.15 K)?
**A.** 0.00357

**Q.** And the solubility (mole fraction) (in water, 278.15 K)?
**A.** 5.79e-07

**Q.** And the solubility (mole fraction) (in water, 283.15 K)?
**A.** 7.99e-07

**Q.** What about the solubility (mole fraction) (in water, 288.15 K) of the same compound?
**A.** 1.08e-06

**Q.** And the solubility (mole fraction) (in water, 293.15 K)?
**A.** 1.46e-06

**Q.** And the solubility (mole fraction) (in water, 298.15 K)?
**A.** 1.96e-06

**Q.** What about the solubility (mole fraction) (in water, 303.15 K) of the same compound?
**A.** 2.61e-06

**Q.** And the solubility (mole fraction) (in water, 308.15 K)?
**A.** 3.4e-06

**Q.** And the solubility (mole fraction) (in water, 313.15 K)?
**A.** 4.49e-06

**Q.** What about the solubility (mole fraction) (in water, 318.15 K) of the same compound?
**A.** 5.81e-06

**Q.** And the solubility (mole fraction) (in water, 323.15 K)?
**A.** 7.48e-06

Source: BigSolDB 2.1
